The values that follow come from ChEMBL document CHEMBL2363022, “Malaria Box Schistosomiasis Screening Data” (2013).

Holding throughout (type): functional
What all share (parameters): scale not given here

Assay [1] deals with Schistosoma mansoni.
In assay [2] the test system is Schistosoma mansoni. The source holds these as a separate data set.
Assay [3] deals with Schistosoma mansoni. The source holds these as a separate data set.

Regarding `COc1ccc2c(=O)cc(C(Cl)(Cl)Cl)oc2c1`, the Toxicity in the assay on Schistosoma mansoni [1] came to 0; in the assay with Schistosoma mansoni [2], 3; with Schistosoma mansoni [3], 0.

Take `CCn1c(SCC(=O)Nc2cc(C(F)(F)F)ccc2Cl)nc2ccccc2c1=O`: the Toxicity with Schistosoma mansoni [1], in the assay on Schistosoma mansoni [2] and in the assay on Schistosoma mansoni [3] was 0 each time.

`COc1ccc2nc(C)cc(Nc3ccccc3O)c2c1`: the Toxicity in the assay on Schistosoma mansoni [1], in the assay on Schistosoma mansoni [2] and with Schistosoma mansoni [3] was 0 in each case.

`CCOC(=O)c1cnc2ccc(OC)cc2c1NCc1ccccc1`: the Toxicity was determined as 0 in the assay with Schistosoma mansoni [1], 1 in the assay with Schistosoma mansoni [2] and 1 with Schistosoma mansoni [3].

As for `CCOc1ccc(C2N(C)c3ccccc3N2C)cc1`, the Toxicity with Schistosoma mansoni [1] is reported as 0; in the assay on Schistosoma mansoni [2] it was 0; in the assay with Schistosoma mansoni [3], 2.

Consider `COc1ccc2c(c1OC)C(=O)N1c3ccccc3N=C(c3ccc(C)cc3)CC21` (stereo not given), for which the Toxicity in the assay with Schistosoma mansoni [1], in the assay on Schistosoma mansoni [2] and in the assay on Schistosoma mansoni [3] was 0 throughout.

In the case of `COc1ccc(-c2cc3c(SCC(=O)Nc4cc(C(F)(F)F)ccc4Cl)nccn3n2)cc1`, the Toxicity in the assay with Schistosoma mansoni [1], with Schistosoma mansoni [2] and in the assay on Schistosoma mansoni [3] was 0 throughout.

As for `COc1cccc(C(=O)NC(c2ccc(C)cc2)c2cc(Cl)c3cccnc3c2O)c1` (stereo not given), the Toxicity is recorded as 4 in the assay with Schistosoma mansoni [1], 4 with Schistosoma mansoni [2] and 1 with Schistosoma mansoni [3].

For the compound `O=C(NC1CCCCC1)C(c1cccs1)N(CCc1ccccc1)C(=O)c1ccco1` (stereo not given), the Toxicity with Schistosoma mansoni [1], in the assay with Schistosoma mansoni [2] and with Schistosoma mansoni [3] was 0 throughout.

In the case of `CC(C)(C)c1ccc(O)c(CNC2CCCCC2)c1`, the Toxicity with Schistosoma mansoni [1], in the assay on Schistosoma mansoni [2] and with Schistosoma mansoni [3] was 0 throughout.

`CCCCOc1ccc(C(=O)Nc2cc(C)on2)cc1`: the Toxicity in the assay with Schistosoma mansoni [1], in the assay with Schistosoma mansoni [2] and with Schistosoma mansoni [3] was 0 in each case.

Take `CCOc1cccc(C(=O)Nc2ccc(-c3nc4ccccc4[nH]3)cc2)c1`: the values for the Toxicity with Schistosoma mansoni [1], in the assay on Schistosoma mansoni [2] and in the assay on Schistosoma mansoni [3] were 0, 2 and 0, respectively.

`Cl.Cn1c(=O)n(C)c2cc(CNCCNc3ccnc4cc(Cl)ccc34)ccc21`: the figures for the Toxicity in the assay with Schistosoma mansoni [1], in the assay on Schistosoma mansoni [2] and with Schistosoma mansoni [3] were 1, 1 and 0, respectively.

Consider `CC1CCN(Cc2c(O)ccc3cc(-c4nc5ccccc5s4)c(=O)oc23)CC1`, for which the Toxicity with Schistosoma mansoni [1], in the assay on Schistosoma mansoni [2] and in the assay with Schistosoma mansoni [3] was 0 in each case.

As to `CC(=O)c1sc(NC(=O)Nc2ccc(C)cc2C)nc1C`, the Toxicity in the assay with Schistosoma mansoni [1], in the assay on Schistosoma mansoni [2] and with Schistosoma mansoni [3] was 0 in each case.

On to `FC(F)(F)c1cccc(Nc2nc(-c3ccccc3)nc3ncccc23)c1`, for which the Toxicity in the assay on Schistosoma mansoni [1], in the assay with Schistosoma mansoni [2] and with Schistosoma mansoni [3] was 0 each time.

Turning to `Cc1ccc(-c2nc3ccccc3o2)cc1NCc1cc(Cc2ccccc2)ccc1O`, the Toxicity in the assay on Schistosoma mansoni [1], with Schistosoma mansoni [2] and in the assay on Schistosoma mansoni [3] was 0 in each case.

`Cc1cc(Nc2ccc(OCc3ccccc3)cc2)nc2cc(O)ccc12`: the Toxicity came out at 3 with Schistosoma mansoni [1], 4 in the assay with Schistosoma mansoni [2] and 2 with Schistosoma mansoni [3].

In the case of `CN(N=O)C1=C(NC2CCCCC2)C(=O)c2ccccc2C1=O`, the Toxicity in the assay with Schistosoma mansoni [1], in the assay with Schistosoma mansoni [2] and in the assay with Schistosoma mansoni [3] was 0 throughout.

As to `COc1ccc(C)c2sc(N(Cc3cccnc3)C(=O)c3ccc(C#N)cc3)nc12`, the Toxicity in the assay on Schistosoma mansoni [1], in the assay on Schistosoma mansoni [2] and in the assay on Schistosoma mansoni [3] was 0 throughout.

For `Oc1ccc(Cl)cc1CNc1nc2ccccc2[nH]1`, the Toxicity in the assay on Schistosoma mansoni [1], in the assay with Schistosoma mansoni [2] and with Schistosoma mansoni [3] was 0 in each case.

`CCOc1cccc2sc(N(Cc3cccnc3)C(=O)C3CCCCC3)nc12`: the Toxicity in the assay on Schistosoma mansoni [1], in the assay with Schistosoma mansoni [2] and with Schistosoma mansoni [3] was 0 throughout.

On to `CCCCC(O)(c1ccc(Cl)cc1)C(CN1CCOCC1)c1ccc(Cl)cc1.Cl` (stereo not given), for which the Toxicity is given as 0 in the assay with Schistosoma mansoni [1], 4 in the assay with Schistosoma mansoni [2] and 0 in the assay on Schistosoma mansoni [3].

For the compound `CSc1ccccc1C(=O)Nc1nc(-c2ccccn2)cs1`, the Toxicity in the assay with Schistosoma mansoni [1], in the assay with Schistosoma mansoni [2] and in the assay on Schistosoma mansoni [3] was 0 in each case.

For the compound `COc1ccccc1C(=O)ON=C(N)Cc1cccc2ccccc12`, the Toxicity in the assay on Schistosoma mansoni [1] is given as 3; with Schistosoma mansoni [2] it was 3; with Schistosoma mansoni [3] it was 1.

`COc1ccc(C(O)(CCC(C)C)C(CN2CCOCC2)c2ccc(Cl)cc2)cc1.Cl` (stereo not given): the Toxicity in the assay with Schistosoma mansoni [1], in the assay with Schistosoma mansoni [2] and in the assay with Schistosoma mansoni [3] was 0 each time.

Regarding `COc1ccc(NC(=O)C2c3ccccc3C(=O)N(CC(C)C)C2c2cccs2)cc1` (stereo not given), the results for the Toxicity in the assay on Schistosoma mansoni [1], with Schistosoma mansoni [2] and with Schistosoma mansoni [3] were 0, 0 and 1, respectively.

For `CC(C)(C)c1ccc(C(=O)Nc2c3c(nn2-c2cccc(Cl)c2)CSC3)cc1`, the Toxicity with Schistosoma mansoni [1], in the assay on Schistosoma mansoni [2] and with Schistosoma mansoni [3] was 0 each time.

Turning to `O=C(Nc1ccc(Cl)cc1)N1CCN(c2ccc3nncn3n2)CC1`, the Toxicity with Schistosoma mansoni [1], in the assay with Schistosoma mansoni [2] and in the assay on Schistosoma mansoni [3] was 0 each time.

For the compound `O=C(NCc1ccco1)C1CCN(S(=O)(=O)c2ccc(Cl)cc2)CC1`, the Toxicity with Schistosoma mansoni [1], with Schistosoma mansoni [2] and with Schistosoma mansoni [3] was 0 each time.

As to `COc1ccc(CN2CCN(Cc3ccccc3)CC2)c(O)c1`, the Toxicity in the assay on Schistosoma mansoni [1], in the assay with Schistosoma mansoni [2] and in the assay on Schistosoma mansoni [3] was 0 in each case.

Regarding `COc1ccc(C(=O)Nc2ccc3nc(N4CCCCC4)cc(C)c3c2)cc1OC`, the Toxicity in the assay with Schistosoma mansoni [1], in the assay with Schistosoma mansoni [2] and with Schistosoma mansoni [3] was 0 each time.

`O=C(CCc1ccccc1)c1ccccc1OCC(O)CN1CCCCC1` (stereo not given): the figures for the Toxicity in the assay on Schistosoma mansoni [1], in the assay on Schistosoma mansoni [2] and with Schistosoma mansoni [3] were 0, 4 and 1, respectively.

Consider `CC(=O)c1ccc(NC(=O)CSc2nc(-c3ccccc3Cl)ns2)cc1`, for which the Toxicity in the assay with Schistosoma mansoni [1], with Schistosoma mansoni [2] and in the assay on Schistosoma mansoni [3] was 0 in each case.

Turning to `COc1cc(CNCCc2ccc(Cl)cc2)cc(OC)c1O`, the Toxicity in the assay on Schistosoma mansoni [1], in the assay with Schistosoma mansoni [2] and in the assay on Schistosoma mansoni [3] was 0 in each case.

Turning to `CC1CC(C)CN(C(=O)c2ccc(Cl)cc2Cl)C1` (stereo not given), the Toxicity with Schistosoma mansoni [1], with Schistosoma mansoni [2] and with Schistosoma mansoni [3] was 0 each time.

For `CCOC(=O)c1cnc2c(C)cccc2c1Nc1ccc(C(C)=O)cc1`, the Toxicity with Schistosoma mansoni [1], with Schistosoma mansoni [2] and in the assay with Schistosoma mansoni [3] was 0 in each case.

For `CCOC(=O)C1(Cc2ccccc2)CCN(Cc2cccc(OC)c2O)CC1`, the Toxicity in the assay with Schistosoma mansoni [1] is 1; in the assay with Schistosoma mansoni [2], 2; in the assay on Schistosoma mansoni [3] it was 1.

As to `COc1ccc(NC(=O)C2c3ccccc3C(=O)N(CC(C)C)C2c2cccs2)cc1Cl` (stereo not given), the Toxicity with Schistosoma mansoni [1], with Schistosoma mansoni [2] and with Schistosoma mansoni [3] was 0 in each case.

With `COc1cc(C(=O)Nc2ccc(-c3nc4ccccc4[nH]3)cc2)cc(OC)c1OC`, the Toxicity with Schistosoma mansoni [1], in the assay on Schistosoma mansoni [2] and in the assay on Schistosoma mansoni [3] was 0 throughout.
